According to patent US7094557B2, “2-Methyl-3-butenyl-1-pyrophosphoric acid salt and agent for treating lymphocytes” (Chugai Seiyaku Kabushiki Kaisha, priority 1999, dated 2006):
Where two headings read alike, the source gives them in different places.

Key:
Vγ2Vδ2 type T cells = settings: prior art; cited from earlier work
[1] = system: human Vγ2Vδ2 type T cells; assay: Proliferation of Vγ2Vδ2 type T cells in treated peripheral blood mononuclear cells (ratio in CD3 cells); format: cell-based; settings: day 11, peripheral blood mononuclear cells of volunteer G
Experimental: After 12 days, the cells were collected.
10 ml of the peripheral blood collected from a healthy volunteer G was subjected to Ficoll-Paque specific gravity centrifugation to purify the peripheral blood mononuclear cells and they were suspended in a Yssel's medium. The cells were apportioned into a 24-hole plate so that the number of the cells becomes a concentration of 2.5 million/1.5 ml/hole, and then, according to the above-mentioned method, treatments 1 to 5 were conducted as shown in Table 1. […] On the day 11 after conducting the treatment, a ratio of Vγ2Vδ2 type T cells in existing CD3 cells was calculated.

[2] = system: normal peripheral blood cells of A; settings: treated peripheral bloods of A (after freezing and thawing) and F on normal peripheral blood cells of A
Experimental: In Test examples, treatment of the peripheral blood by 2-methyl-3-butenyl-1-pyrophosphoric acid or by a salt thereof was conducted as follows unless otherwise specified. Lymphocytes contained in the peripheral blood derived from healthy volunteer were treated so that the final concentration of the pyrophosphoric acid compound was 20 μM, and cultured in a Yssel's medium under conditions of temperature at 37° C. and a carbon dioxide concentration of 5%. […] After 12 days, the cells were collected.

[3] = for Stable preservation time in solution: neutral aqueous solution
[4] = system: human Vγ2Vδ2 type T cell clones

Structure (SMILES)	Concentration required to activate Vγ2Vδ2 type T cells (Vγ2Vδ2 type T cells)	Vγ2Vδ2 type T cells/CD3 cells ([1]; 2 μM sodium salt + interleukin-2 10 U/ml)	Vγ2Vδ2 type T cells/CD3 cells ([1]; 20 μM sodium salt + interleukin-2 10 U/ml)	Vγ2Vδ2 type T cells/CD3 cells ([1]; 200 μM sodium salt + interleukin-2 10 U/ml)	Cytotoxicity of treated Vγ2Vδ2 type T cells on normal cells [2]	Dissociation of inorganic pyrophosphoric acid ([3]; acidic range of pH 4 or less)	Stable preservation time in solution ([3]; pH 6 to 7, room temperature)	Stable preservation time in solution ([3]; pH 6 to 7, −20° C.)	Amount in whose presence the human Vγ2Vδ2 type T cells proliferate [4]	Amount that can stimulate the cells ([4]; human Vγ2Vδ2 type T cell clones)
C=C(C)CCOP(=O)(O)OP(=O)(O)O [isopentenyl pyrophosphoric acid]	several hundreds of μM to several mM									
CCOP(=O)(O)O [mono ethyl phosphoric acid]	several hundreds of μM to several mM									
C=CC(C)COP(=O)([O-])OP(=O)([O-])[O-].[Na+].[Na+].[Na+] (centres unmarked) [sodium salt of 2-methyl-3-butenyl-1-pyrophosphoric acid]		58.3%	85.5%	94.5%	do not attack the normal cells	observed within a few minutes	more than one week	more than one year	several hundreds μM	several hundreds nM to several tens μM
